One assay deals with male mice. In words: Conditioned place preference (rCPP, mCPP). The format is in vivo, NMRI mice. From the text: Male and female Rcc Han Wistar rats (8–12 weeks old at arrival; Envigo, Horst, Netherlands) were used for the alcohol drinking and locomotor activity experiments as they drink alcohol to intoxicating levels. For in vivo microdialysis studies male Wistar rats (Charles River, Calco, Italy) were used as they display robust dopamine levels in NAc shell after alcohol injection. […] All rodents were allowed to habituate to the animal facility at least one week before they entered an experiment. During housing (20 °C with 50% humidity) the rodents had free access to water and standard chow (Teklad Rodent Diet; Envigo, Madison, WI, USA). These experiments were approved by the Ethics Committee for Animal Experiments (ethical numbers: 1457/18, 3276/18, 1556/18, 3348/20; Gothenburg, Sweden) and followed the ARRIVE guidelines. The sample sizes of each experiment were based on previous experience in which statistical significance has been detected. The person who conducted the experiments, and analyzed the collected data was aware of the treatment allocation. Only preset exclusion criteria were used when analyzing the data obtained in attempts to exclude confounding factors in analyzing data. In the alcohol drinking experiments leaking bottles and low alcohol consumption (<3.0 g/kg for males; <3.5 g/kg for females) were preset exclusion criteria. The preset exclusion criterion in the ex vivo HPLC-EC, ELISA, and recombinant cell line experiments was contamination of the sample. Misplaced probes, technical difficulties, and damages to the surgery area were preset exclusion criteria for the in vivo microdialysis experiment. Intra-cage male aggression was the preset exclusion criterion for the locomotor activity and CPP experiments. To minimize tentative confounding factors, the order of treatments was stratified, with treatments being mixed for each animal cage and for each apparatus used as well as balancing the alcohol intake between future treatment groups. Although each experiment only was performed once, they were separated over different laboratory days with equal data obtained between sessions.
Alcohol (95%; Solveco AB, Stockholm, Sweden) was either diluted to a 20% solution using tap water (drinking experiment) or to a 15% (w/v) solution with 0.9% NaCl. Alcohol was in the behavioral and neurochemical tests injected (intraperitoneally, IP) 5 min before the test. A dose of 1.75 g/kg was used in male mice as it causes robust locomotor stimulation and induces a CPP [37–39], and 2 g/kg was used for rats as it elevates the dopamine levels in NAc shell. DAG (Tocrise Bioscience, Bristol, UK) was dissolved in 0.9% NaCl in doses (0.25–2 mg/kg) known to reduce food intake and DAG was injected IP). […]

The test system of assay [1] is feeding and ghrelin-induced responses. The settings on record: cited from earlier work. The source says: DAG can be found in the plasma after ghrelin is secreted from the gastrointestinal tract and subsequently deacetylated in the serum. […] Based on these findings and given that ghrelin has a prominent role in mediating alcohol-related responses, we hypothesize that DAG decreases such effects in rodents.

Regarding “des-acyl ghrelin (GSSFLSPEHQRVQQRKESKKPPAKLQPR; Ghrelin-28 non-acylated; UniProt Q9UBU3 24-51, looked up) [DAG, non-octanoylated form of ghrelin; purchased from Tocris (printed Tocrise Bioscience), dissolved in 0.9% NaCl]”, the “memory of alcohol reward (mCPP)” value in the assay on male mice (DAG 1 mg/kg at post-conditioning) is “did not reduce the memory of alcohol reward (mCPP, t14 = 1.36, P = 0.1955)”. Also, the “reward of alcohol in conditioned place preference (rCPP)” value in the assay on male mice (DAG 1 mg/kg during conditioning with alcohol) was “attenuated the reward of alcohol in the conditioned place preference test (rCPP, t12 = 2.69, P = 0.0197)”. In the assay on male mice (DAG 1 mg/kg, only vehicle control instead of alcohol), the rCPP per se result is “did not influence rCPP (t14 = 0.64, P = 0.5304) per se”. Also, the mCPP per se entry in the assay on male mice (DAG 1 mg/kg, vehicle during conditioning) is listed as “DAG did neither influence locomotor activity, rCPP, mCPP nor accumbal dopamine per se”. For the same substance, in assay [1] (ref [30–34]), the “effects of ghrelin on feeding, gastric emptying, body temperature, glucose and lipid metabolism” value is “blocks the effects of ghrelin on feeding, gastric emptying, body temperature, and glucose and lipid metabolism”. Also, the food intake result in assay [1] (ref [32]) is reported as “decrease food intake”.

These data come from paper PMC11224403, “Des-acyl ghrelin reduces alcohol intake and alcohol-induced reward in rodents” (Translational Psychiatry, 2024).
